This is an account of results in patent US5455255A, “2-(2,3,5,6-tetrafluoro-4-pyridyl)-1,2-benzisothiazol-3(2H)-one 1,1-dioxides and compositions and method of use thereof” (Sterling Winthrop Inc., priority 1994, dated 1995).

The experiment concerns the target T1, human leukocyte elastase (Homo sapiens, UniProt P08246).
T1 sequence (P08246 30-267): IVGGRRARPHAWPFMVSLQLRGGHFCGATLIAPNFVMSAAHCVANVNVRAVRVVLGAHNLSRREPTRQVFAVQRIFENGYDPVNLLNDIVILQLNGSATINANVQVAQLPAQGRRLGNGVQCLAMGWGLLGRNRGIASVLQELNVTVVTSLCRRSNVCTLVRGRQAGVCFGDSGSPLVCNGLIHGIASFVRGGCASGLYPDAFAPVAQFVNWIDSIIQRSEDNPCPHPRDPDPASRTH
The experiment is described as follows: Human leukocyte elastase (HLE) inhibition, progress-curve assay with MeOSuc-Ala-Ala-Pro-Val-pNA. In kind it is biochemical. To be noted: substrate MeOSuc-Ala-Ala-Pro-Val-pNA, pH 7.8, 25° C., absorbance 410 nm, read-out: Ki (human leukocyte elastase inhibitory activity). The procedure:
The test compound (inhibitor) is dissolved in DMSO in a vial to produce an inhibitor stock solution which has a concentration in the range of 200-1000 μM. The inhibitor stock solution is diluted (1:4, 1:16 and 1:64) into assay vials (vials 1, 2 and 3 respectively) containing 2.4 mL of buffer solution (50 mM N-[2-hydroxyethyl] piperazine-N'-[2-ethanesulfonic acid]/NaOH, 500 mM NaCl, pH 7.8 at 25° C.) and DMSO is added so that the total volume in each vial is 3.2 mL. 70 μL, 50 μL, 35 μL and 25 μL of inhibitor from assay vial 1 is placed into the first four wells of a 96-well microtiter plate and each well is made up to 90 μL total volume with the addition of a 25% DMSO/buffer solution. The inhibitor from assay vials 2 and 3 is processed in a similar manner and placed in wells 5-12 respectively to afford a total of 12 different inhibitor concentrations. Four wells (wells 13-16) containing 90 μL of the 25% DMSO/buffer solution but no inhibitor are also run simultaneously with the inhibited wells as a control. 150 μL of substrate solution (prepared by the addition of 500 μL of the human leukocyte elastase (HLE) substrate MeOSuc-Ala-Ala-Pro-Val-pNA (18.7 mM in DMSO) to 19.5 mL of buffer solution) was then added simultaneously into each of the 16 wells and the solution in each well was thoroughly mixed.
The 96-well microtiter plate was placed into a Microplate Reader #89815A spectrophotometer 110 μL of the enzyme solution (prepared as follows: a mixture of 20 mL of buffer solution and 20 mg of bovine serum albumen is gently vortexed in a scintillation vial and 5 μL HLE stock solution (1 mg/mL dissolved in deionized water) is added simultaneously to each of the 16 wells. Each of the solutions in the wells is throughly mixed and then the time-dependent absorbance data is collected at an absorbance of 410 nm until the assay is complete. It should be noted that although this assay method can be done manually, it is preferred to perform the assay robotically using a Hewlett Packard MicroAssay System Robot.
A plot of the absorbance versus time data thus obtained affords progress curves the final slope of which is equal to the final steady-state velocities (VF). Using the program. ENZFITTER (Elsevier software), the progress curves for the four control assays ([I]=O) are fit by linear regression to yield the enzyme reaction velocity values in the absences of inhibitor (Vo) which are averaged to produce a single fixed value. The inhibition constant Ki (nM) is then obtained from a plot of [formula] which affords a linear plot wherein: [formula] and [S] is the concentration of the substrate and Km is the Michaelis constant.
Table IV summarizes the results obtained from the testing of representative compounds of the invention for human leukocyte elastase inhibitory activity.
Consider `COc1cc(OC)c2c(c1)S(=O)(=O)N(c1c(F)c(F)nc(F)c1F)C2=O` [Example 4], for which the Ki (as a rule, the equilibrium dissociation constant of an inhibitor or competing ligand from its target) worked out at 4 nM.

As to `COc1cc(C(C)C)c2c(c1)S(=O)(=O)N(c1c(F)c(F)nc(F)c1F)C2=O` [Example 2, 4-isopropyl-6-methoxy-2-(2,3,5,6-tetrafluoro-4-pyridyl)-1,2-benzisothiazol-3(2H)-one 1,1-dioxide], the inhibitory constant (Ki) came to 38 nM.

As to `CC(C)c1cc(O)cc2c1C(=O)N(c1c(F)c(F)nc(F)c1F)S2(=O)=O` [Example 11, 4-isopropyl-6-hydroxy-2-(2,3,5,6-tetrafluoro-4-pyridyl)-1,2-benzisothiazol-1,2-benzisothiazol-3(2H)-one 1,1-dioxide], the inhibition constant Ki is 2000 nM.

For the molecule `CC(C)Oc1cccc2c1C(=O)N(c1c(F)c(F)nc(F)c1F)S2(=O)=O` [Example 9], the Ki was 140 nM.

With `COc1cccc2c1C(=O)N(c1c(F)c(F)nc(F)c1F)S2(=O)=O` [Example 7], the inhibition constant (Ki) was found to be 6.5 nM.

For the molecule `COc1cc2c(c(C(C)C)c1OC)C(=O)N(c1c(F)c(F)nc(F)c1F)S2(=O)=O` [Example 3], the inhibition constant Ki turned out to be 47.5 nM.

Take `COc1ccc2c(c1)S(=O)(=O)N(c1c(F)c(F)nc(F)c1F)C2=O` [Example 10A]: the inhibitory constant (Ki) turned out to be 74 nM.

As to `O=C1c2ccccc2S(=O)(=O)N1c1c(F)c(F)nc(F)c1F` [Example 1, 2-(2,3,5,6-tetrafluoro-4-pyridyl)-1,2-benzisothiazol-3(2H)-one 1,1-dioxide], the Ki was found to be 20 nM.

Turning to `CCOc1cccc2c1C(=O)N(c1c(F)c(F)nc(F)c1F)S2(=O)=O` [Example 8], the Ki was 1.4 nM.

In the case of `CCCc1c(OC)c(OC)cc2c1C(=O)N(c1c(F)c(F)nc(F)c1F)S2(=O)=O` [Example 6], the inhibition constant (Ki) worked out at 16 nM.

`CC(C)Oc1cc(C(C)C)c2c(c1)S(=O)(=O)N(c1c(F)c(F)nc(F)c1F)C2=O` [Example 12, 4-isopropyl-6-isopropoxy-2-(2,3,5,6-tetrafluoro-4-pyridyl)-1.2-benzisothiazol-3(2H)-one 1,1-dioxide]: the Ki is 50 nM.

As to `COc1ccc2c(c1OC)C(=O)N(c1c(F)c(F)nc(F)c1F)S2(=O)=O` [Example 5], the inhibition constant (Ki) turned out to be 15 nM.

Take `CC(C)c1cccc2c1C(=O)N(c1c(F)c(F)nc(F)c1F)S2(=O)=O` [Example 10]: the inhibition constant (Ki) was found to be 100 nM.
